The record followed here is patent US8257739B2, “Pharmaceutical compositions of semi-ordered drugs and polymers” (Bend Research, Inc., priority 2002, dated 2012).

The nature of data set [1]: In vitro dissolution test of Drug 1 compositions in MFDS solution (concentration enhancement). In kind it is physicochemical. The note with it: for AUC90 / Cmax9O: Drug 1, MFDS pH 6.5, 37° C., first 90 min; for AUC / Drug 1 Concentration: MFDS pH 6.5, 37° C. An excerpt: In conducting such a dissolution test, the amount of test composition used is an amount such that if all of the drug dissolved, the drug concentration would be at least 2-fold to 100-fold or more than that of the equilibrium concentration of the drug. The concentration of dissolved drug is typically measured as a function of time by sampling the test medium and plotting drug concentration in the test medium vs. time so that the MDC and/or AUC can be ascertained.
To avoid drug particulates greater than about 0.4 to 1.0 μm in size being present in the solution assayed, which would give an erroneous determination, the test solution is either filtered or centrifuged. “Dissolved drug” is typically taken as that material that either passes a 0.45 μm syringe filter or, alternatively, the material that remains in the supernatant following centrifugation. Filtration can be conducted using a 13 mm, 0.45 μm polyvinylidine difluoride syringe filter sold by Scientific Resources under the trademark TITAN®. Centrifugation is typically carried out in a polypropylene microcentrifuge tube by centrifuging at 13,000 G for 60 seconds. Other similar filtration or centrifugation methods can be employed and useful results obtained. For example, using other types of microfilters may yield values somewhat higher or lower (by about 10-40%) than that obtained with the filter specified above but will still allow identification of preferred compositions. It is recognized that this definition of “dissolved drug” encompasses not only monomeric solvated drug molecules but also a wide range of species such as polymer/drug assemblies that have submicron dimensions such as drug aggregates, aggregates of mixtures of polymer and drug, micelles, polymeric micelles, colloidal particles or nanocrystals, polymer/drug complexes, and other such drug-containing species that are present in the filtrate or supernatant in the specified dissolution test.
For these tests, samples containing 0.72 mg of Example 1B, 0.36 mg of either Control 1C or 1D, or 0.72 mg of Control 1E were separately added to microcentrifuge tubes. The tubes were placed in a 37° C. temperature-controlled chamber, and 1.8 mL MFDS solution at pH 6.5 was added. The contents of the tubes were quickly mixed using a vortex mixer for about 60 seconds. The tubes were then centrifuged at 13,000 G at 37° C. for 1 minute. The supernatant was sampled and diluted 1:6 (by volume) with methanol and then analyzed by high-performance liquid chromatography (HPLC). Drug 1 was analyzed by HPLC using a Waters Symmetry C18 column. The mobile phase consisted of 0.3 vol % glacial acetic acid, 0.2 vol % triethylamine in HPLC water/acetonitrile in a volume ratio of 50/50. Drug concentration was calculated by comparing UV absorbance at 260 nm to the absorbance of Drug 1 standards.
The contents of the tubes were then again mixed on the vortex mixer and allowed to stand undisturbed at 37° C. until the next sample was taken. Samples of the tubes were collected at 4, 10, 20, 40, 90, and 1200 minutes.

Data set [2] is described as follows: In vivo test of Drug 1 compositions, oral powder for constitution, plasma Drug 1. The note with it: male beagle dogs, oral gavage, 10 mgA/kg Drug 1, plasma. On the procedure:
The composition of Example 1B was used as an oral powder for constitution (OPC) for evaluating the performance of the composition in in vivo tests using male beagle dogs. The OPC was dosed as a suspension in a solution containing 0.5 wt % Methocel® (Dow Chemical Co.), and was prepared as follows. First, 5.0130 g of Methocel® was weighed out and added slowly to approximately 200 ml of water at 60° C. to form a Methocel® suspension. After all the Methocel® was added, the suspension was placed in a beaker of ice water. Next, 800 ml of chilled water was added with stirring. A 702.7 mg sample of Example 1B was weighed into a mortar. A drop of the Methocel® suspension was added to the mortar and the drug mixture was ground with a pestle. Additional Methocel® suspension was added gradually with grinding until a pourable suspension was obtained. The suspension was then transferred to a vial. The mortar and pestle were washed with the remaining Methocel® suspension. A total of 350 ml of Methocel® suspension was added to the Example 1B sample.
Six male beagle dogs were dosed with samples of Example 1B. Sufficient amounts of the OPC were dosed such that each dog received 10 mgA/kg of Drug 1 (where “A” refers to active drug). The dogs were fed 1 can of liquid diet the day prior to the study. On the day of the study, the dogs were dosed with the OPC using a gavage tube and a syringe. Whole blood samples of 6 ml were taken from the jugular vein using a plasma vacutainer containing sodium heparin with a 20 gauge needle at 0, ½, 1, 2, 3, 4, 6, 8, and 24 hours post dosing. Samples were spun in a refrigerated (5° C.) centrifuge at 3000 rpm for 5 minutes. The resultant plasma samples were poured into 2 ml cryogenic plastic tubes and stored in a freezer (−20° C.) within ½ hour post sampling time. Samples were then analyzed for Drug 1 using an HPLC method.
A similar method was used to dose the dogs with samples of Control 1B, Control 1C, and Control 1D. A washout period of at least 1 week was used between dosing of the various compositions.

The nature of data set [3]: In vivo test of Drug 2 compositions, gelatin capsule, plasma Drug 2. The note with it: fasted male beagle dogs, one gelatin capsule, 40 mg Drug 2, plasma. The method, then: The composition of Example 2 was placed in a gelatin capsule such that the capsule contained 40 mg of Drug 2. Five fasted male beagle dogs were dosed with one capsule and whole blood samples of 6 ml were taken from the jugular vein using a plasma vacutainer containing sodium heparin with a 20 gauge needle at 0, ½, 1, 1½, 2, 3, 4, 6, 8, 12, and 24 hours post dosing. Samples were spun in a refrigerated (5° C.) centrifuge at 3000 rpm for 5 minutes. Resultant plasma samples were poured into 2 ml cryogenic plastic tubes and were stored in a freezer (−20° C.) within ½ hour post sampling time. Similar tests were performed with a gelatin capsule containing 40 mg of crystalline Drug 2 (Control 2B).

The nature of data set [4]: In vitro dissolution test of Drug 2 compositions in MFDS solution (concentration enhancement). In kind it is physicochemical. Particulars: 37° C.; for AUC / Drug 2 Concentration: MFDS. On the procedure: The concentration-enhancement provided by Example 2, Control 2B and Control 2C was determined using an in vitro dissolution test as follows. Samples containing 3.91 mg of Example 2, 0.36 mg of Control 2B, or 3.9 mg of Control 2C, were separately added to microcentrifuge tubes. The tubes were placed in a 37° C. temperature-controlled chamber, and 1.8 mL MFDS solution was added. The contents of the tubes were quickly mixed using a vortex mixer for about 60 seconds. The tubes were then centrifuged at 13,000 G at 37° C. for 1 minute. The supernatant was sampled and diluted 1:6 (by volume) with methanol and then analyzed by high-performance liquid chromatography (HPLC). Drug 2 was analyzed by HPLC using a Phenomenex ODS 20 column (250 mm×4.6mm). The mobile phase consisted of 0.02 M KH2PO4 (pH 3)/acetonitrile in a volume ratio of 60/40. Drug concentration was calculated by comparing UV absorbance at 254 nm to the absorbance of Drug 2 standards. The contents of the tubes were then again mixed on the vortex mixer and the next sample was taken. […]

A word on the AUC: it is concentration integrated over time. As a reminder, the Cmax is the highest concentration seen after dosing. For orientation: AUC(0-inf) means total exposure, with the tail of the curve extrapolated. On to `NC(=O)N(O)C1C=C(c2cccc(Oc3ccc(F)cc3)c2)CC1` (single isomer, unassigned; (+)) [Control 1C, (+)-N-{3-[3-(4-fluorophenoxy)phenyl]-2-cyclopenten-1-yl}-N-hydroxyurea], for which, in data set [1], the AUC90 turned out to be 2200 µg·min/mL. For the same compound, in data set [1], the Cmax9O is 32000 ng/mL. For the same compound, the AUC was 0 µg·min/mL in data set [1] (time 0 min); 0 µg·min/mL in data set [1] (time 4 min); 100 µg·min/mL in data set [1] (time 10 min); 300 µg·min/mL in data set [1] (time 20 min); 800 µg·min/mL in data set [1] (time 40 min); 2,200 min*μg/mL in data set [1] (time 90 min). For the same compound, the exposure (AUC) in data set [1] (time 1200 min) is recorded as 43,300 min*μg/mL. Also, the “Drug 1 Concentration” value in data set [1] (time 0 min) is 0 µg/mL; in data set [1] (time 4 min), 9 µg/mL; in data set [1] (time 10 min) it was 15 µg/mL; in data set [1] (time 20 min) it was 21 µg/mL; in data set [1] (time 40 min) it was 27 µg/mL; in data set [1] (time 90 min), 32 µg/mL. For the same compound, the “Drug 1 Concentration” value in data set [1] (time 1200 min) turned out to be 42 µg/mL. In data set [2], the maximum concentration (Cmax) was 1,650 ng/ml. The AUC(0-inf) in data set [2] (male, beagle, dog, plasma, po, 10 mgA/kg, read-out: AUC(0-inf)) came to 11100 ng·h/mL.

Take `NC(=O)N(O)C1C=C(c2cccc(Oc3ccc(F)cc3)c2)CC1` (single isomer, unassigned; (+)) [Control 1D, (+)-N-{3-[3-(4-fluorophenoxy)phenyl]-2-cyclopenten-1-yl}-N-hydroxyurea]: in data set [1], the AUC90 came out at 5600 µg·min/mL. Besides, in data set [1], the Cmax9O was 70000 ng/mL. The exposure (AUC) in data set [1] (time 0 min) is 0 µg·min/mL; in data set [1] (time 4 min), 100 µg·min/mL; in data set [1] (time 10 min) it was 400 µg·min/mL; in data set [1] (time 20 min) it was 1,000 min*μg/mL; in data set [1] (time 40 min), 2,300 min*μg/mL; in data set [1] (time 90 min), 5,600 min*μg/mL. The AUC in data set [1] (time 1200 min) is on record as 77,800 min*μg/mL. For the same compound, the “Drug 1 Concentration” value turned out to be 0 µg/mL in data set [1] (time 0 min); 50 µg/mL in data set [1] (time 4 min); 58 µg/mL in data set [1] (time 10 min); 61 µg/mL in data set [1] (time 20 min); 64 µg/mL in data set [1] (time 40 min); 70 µg/mL in data set [1] (time 90 min). The “Drug 1 Concentration” value in data set [1] (time 1200 min) is 60 µg/mL. The “AUC(0-inf)” value in data set [2] is recorded as 20,700 ng/ml * hr. The peak concentration (Cmax) in data set [2] is reported as 3,622 ng/ml.

`O=C1Cc2cc(CCN3CCN(c4nsc5ccccc45)CC3)c(Cl)cc2N1` [Control 2B] gave an AUC(0-inf) in data set [3] of 1050 ng·h/mL. Also, the Cmax in data set [3] is 196 ng/mL. Moreover, the AUC90 in data set [4] (Drug 2, MFDS, first 90 min) was 1,600 min * μg/mL. Also, the Cmax90 in data set [4] (Drug 2, MFDS, first 90 min) stood at 23000 ng/mL. Further, the exposure (AUC) was 0 µg·min/mL in data set [4] (time 4 min); 100 µg·min/mL in data set [4] (time 10 min); 300 µg·min/mL in data set [4] (time 20 min); 700 µg·min/mL in data set [4] (time 40 min); 1,600 min*μg/mL in data set [4] (time 90 min); 14,900 min*μg/mL in data set [4] (time 1200 min). In addition, the “Drug 2 Concentration” value in data set [4] (time 4 min) is 14 µg/mL; in data set [4] (time 10 min), 17 µg/mL; in data set [4] (time 20 min), 23 µg/mL; in data set [4] (time 40 min), 19 µg/mL; in data set [4] (time 90 min) it was 15 µg/mL; in data set [4] (time 1200 min), 9 µg/mL.
